Source: ChEMBL document CHEMBL1221220, “Transport and signaling via the amino acid binding site of the yeast Gap1 amino acid transceptor” (Nat Chem Biol, 2009)
Where a chain is given by its changes, count along the chain named. Activity calls are given as the source filed them. No cut-off for these calls is given here.

Columns and labels:
[1] = test system: T1, General amino-acid permease GAP1 (Saccharomyces cerevisiae), P19145 [A403C]; test: Activation of yeast Gap1 A403C mutant-mediated amino acid uptake at 10 mM
T1 sequence (whole entry): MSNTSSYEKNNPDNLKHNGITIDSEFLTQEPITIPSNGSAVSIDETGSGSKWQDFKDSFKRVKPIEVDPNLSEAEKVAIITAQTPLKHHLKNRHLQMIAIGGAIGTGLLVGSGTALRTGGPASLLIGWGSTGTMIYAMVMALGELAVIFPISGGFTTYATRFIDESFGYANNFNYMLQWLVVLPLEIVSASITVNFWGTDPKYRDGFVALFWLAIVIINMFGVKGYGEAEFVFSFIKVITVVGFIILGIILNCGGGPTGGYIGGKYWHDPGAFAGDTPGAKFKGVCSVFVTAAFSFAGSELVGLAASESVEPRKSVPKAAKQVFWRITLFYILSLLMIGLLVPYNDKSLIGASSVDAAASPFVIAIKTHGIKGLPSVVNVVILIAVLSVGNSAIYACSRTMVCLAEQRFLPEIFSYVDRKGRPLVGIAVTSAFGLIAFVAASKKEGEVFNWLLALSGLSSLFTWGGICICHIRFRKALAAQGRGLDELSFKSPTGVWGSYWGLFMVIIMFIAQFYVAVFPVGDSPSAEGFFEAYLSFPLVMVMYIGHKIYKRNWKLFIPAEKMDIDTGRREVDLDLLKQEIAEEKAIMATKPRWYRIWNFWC

[2] = test system: T2, General amino-acid permease GAP1 (Saccharomyces cerevisiae), P19145 [S398C]; test: Induction of yeast Gap1 S398C mutant-mediated trehalose activation at 10 mM
T2 sequence (whole entry): T1 sequence (whole entry) with S398C, C403A

[3] = test system: T3, General amino-acid permease GAP1 (Saccharomyces cerevisiae), P19145 [M401C]; test: Induction of yeast Gap1 M401C mutant-mediated trehalose activation at 2 mM in presence of 10 mM MTSEA treated before compound addition
T3 sequence (whole entry): T1 sequence (whole entry) with M401C, C403A

[4] = test system: T4, General amino-acid permease GAP1 (Saccharomyces cerevisiae), P19145 [L383C]; test: Induction of yeast Gap1 L383C mutant-mediated trehalose activation at 2 mM in presence of 10 mM MTSEA treated before compound addition
T4 sequence (whole entry): T1 sequence (whole entry) with L383C, C403A

Activity [1]: inactive
Activity [2]: inactive
inhibition [3]: Active
inhibition [4]: Active
SMILES: NC(=O)NCCC[C@H](N)C(=O)O
